From patent US5811073A, “Method for radioisotopic detection and localization of inflammation in a host” (President and Fellows of Harvard College, priority 1995, dated 1998)

Key:
[1] = tested on: bacterial (E. coli) inflammatory lesions (pus capsule); test: Gamma camera imaging of rats with bacterial infection; assay type: in vivo; parameters: key to Figure of Merit (FOM), equation (1): FOM=(At-Ab)^2/(At+Ab), from total counts target vs background; conditions: i.v.; for Figure of Merit (FOM), equation (1): 0.2 mCi ^67 Ga-citrate (n=3); for Figure of Merit (FOM), equation (1) / Pus Capsule to Contralateral Tissue (T/B) Ratio, gamma camera imaging: 1.5 mCi/rat ^123 IUdR (n=4); for Figure of Merit (FOM), equation (1) / Pus Capsule to Contralateral Tissue (T/B) Ratio, gamma camera imaging / Figure of Merit (FOM), equation (2): mean ± SD; for Pus Capsule to Contralateral Tissue (T/B) Ratio, gamma camera imaging: 0.2 mCi/rat ^67 Ga (n=3); for Figure of Merit (FOM), equation (2): n=3 (^67 Ga), n=4 (^123 IUdR)
Description: A frozen sample of E. coli bacteria (clinical isolate; ATCC 9339) was used to inoculate a 10 ml trypticase soy medium (trypticase soy broth, BBL #11768, 30 g/L water), and the tube was incubated overnight at […] This culture was used to grow single colonies by streaking the sample on agar plates (100 mm petri dishes each containing 15 ml of […] in the same medium). Good colonies develop in 10-11 hours at 37° C. The agar plates containing bacterial colonies were stored upside down at 4° C. A single colony of bacteria from the agar plate was used to inoculate 10 ml trypticase soy medium, and the tube was incubated overnight at 37° C. with vigorous shaking. Two ml of this overnight culture was transferred into 100 ml trypticase soy medium and the sample incubated at 37° C. with vigorous shaking until the culture reached an OD600 of ~0.8 (in about 2 hrs). This 100 ml culture contained ~6.4×10^10 bacterial cells (1 OD600 =8×10^8 cells/ml).
The culture was centrifuged at 5500 rpm for 5 min at 4° C. in a Sorvall SS-34 rotor, the bacterial pellet resuspended in saline to give ~2.5×10^9 bacteria/ml, and 0.1 ml of resuspended cells injected into the left thigh muscle of each anesthetized rat.
A further set of rats prepared as described in Examples 1 and 2 received intravenous injections of either ^123 IUdR (at a dose of about 1.5 mCi/rat) or gallium-67 citrate (at a dose of about 0.2 mCi/rat). After 1, 3 and 24 hours, rats from each group were anesthetized and imaged using a gamma camera (the General Electric STARCAM™ 400 fitted with parallel hole medium collimator). Anterior images were obtained 10^6 counts/frame except for the 24 h period for ^123 IUdR where a 15 min scan was carried out. A 20% window was present over the 159 keV photopeaks of ^67 Ga (93 kev, 184 keV, and 298 keV).
Regions of interest (ROI) were drawn over the inflamed areas (3×4 pixel) and over the contralateral area in each rat. Total counts in these regions were used to calculate Target to Background (T/B) ratios and to calculate Figure of Merit (FOM; statistical significance) values using either of the following equations:
FOM=(At -Ab)^2 /(At +Ab) (1)
At =counts in ROI (3×4) over pus capsule; and
Ab =counts in ROI (3×4) over contralateral muscle.
Equation (1) is derived from the Report of the National Council on Radiation Protection and Measurements, Nuclear Medicine, "Factors Influencing the Choice and Use of Radionuclides in Diagnosis and Therapy", Report No. 70, p.79 (NRCP, Bethesda, Md., 1982). Equation (2) is derived from Rubin et al., J. Nucl. Med. 30:385-389, 1989. For purposes of reference, the disclosures of each of these publications is incorporated herein.

[2] = intravenous; adult man; ^123 I-iodine thyroid blocked; cited from earlier work
[3] = tested on: sterile and bacterial inflammation; conditions: i.v., 200-300 μCi gallium-67 citrate, 300-500 μCi ^99m Tc-human serum albumin, 100-150 μCi ^111 In-IgG or ^125 I-IgG; cited from earlier work
[4] = tested on: sterile inflammatory lesions (pus capsule; turpentine oil); test: Biodistribution (pus capsule to contralateral tissue ratio) in rats with sterile inflammation; conditions: for Pus Capsule and Contralateral Tissue (T/B) Ratio, biodistribution: sterile inflammation, i.v., 10 μCi/rat ^67 Ga (n=2), 5 μCi/rat ^125 IUdR (n=6), mean ± SD

O=C([O-])CC(O)(CC(=O)[O-])C(=O)[O-].[67Ga+3] [^67 Ga, gallium-67 citrate]
detection of the lesion in scintigraphic images (in words) ([1]; 1, 3, and 24 h): can clearly detect the lesion
Figure of Merit (FOM), equation (1) ([1]; 1 h): 49 ± 60
Pus Capsule to Contralateral Tissue (T/B) Ratio, gamma camera imaging ([1]; 1 h): 1.26 ± 0.09
Figure of Merit (FOM), equation (2) ([1]; 1 h): 0.26 ± 0.11
Figure of Merit (FOM), equation (1) ([1]; 3 h): 306 ± 210
Pus Capsule to Contralateral Tissue (T/B) Ratio, gamma camera imaging ([1]; 3 h): 2.01 ± 0.24
Figure of Merit (FOM), equation (2) ([1]; 3 h): 1.01 ± 0.29
Figure of Merit (FOM), equation (1) ([1]; 24 h): 231 ± 135
Pus Capsule to Contralateral Tissue (T/B) Ratio, gamma camera imaging ([1]; 24 h): 1.91 ± 0.15
Figure of Merit (FOM), equation (2) ([1]; 24 h): 0.90 ± 0.21
whole body effective dose [2]: 0.44 rad/mCi
time of maximum target to background tissue ratio for image intensity [3]: 3 h
concentration within lesion (pus capsule) vs contralateral tissues (in words) ([4]; sterile inflammation (turpentine oil)): to a greater extent than in the contralateral tissues
Pus Capsule and Contralateral Tissue (T/B) Ratio, biodistribution ([4]; 3 h): 3.55 ± 0.24
Pus Capsule and Contralateral Tissue (T/B) Ratio, biodistribution ([4]; 24 h): 2.85 ± 0.64
